Measurements as given in patent US20240279278A1, “NMU RECEPTOR 2 AGONISTS” (Boehringer Ingelheim International GmbH, priority 2023, published 2024).
Converted amounts (≈) assume the structure as drawn. Residues, ends and D or L forms follow the SMILES beside them.

What was measured:
human NMUR2 receptor = human NMUR2 receptor (Homo sapiens, UniProt Q9GZQ4); assay: Radioligand binding competition assay (RLB), human NMUR2 receptor binding (SPA, [125I]-Neuromedin U-25); design: host or cells: CHO-K1; conditions: CHO-K1 hNMUR2 cell membranes, 4 hours at RT
physchem = format: physicochemical
Method in brief: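 Peptide TFA salts were shaken at a nominal 10 mg/mL in 0.1 M phosphate buffer, pH 6 to 8, for 2 h at room temperature and then filtered. Reversed-phase HPLC peak area was compared with a 1 mg/mL control in buffer or DMSO to give solubility. The pH of each sample was recorded.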

human NMUR1 receptor = molecular target: T1, human NMUR1 receptor (Homo sapiens, UniProt Q9HB89); assay: Radioligand binding competition assay (RLB), human NMUR1 receptor binding (SPA, [125I]-Neuromedin U-25); conditions: CHO-K1 hNMUR1 cell membranes, 4 hours at RT
T1 construct: host or cells: CHO-K1
T1 sequence (Q9HB89 24-426 limits assumed): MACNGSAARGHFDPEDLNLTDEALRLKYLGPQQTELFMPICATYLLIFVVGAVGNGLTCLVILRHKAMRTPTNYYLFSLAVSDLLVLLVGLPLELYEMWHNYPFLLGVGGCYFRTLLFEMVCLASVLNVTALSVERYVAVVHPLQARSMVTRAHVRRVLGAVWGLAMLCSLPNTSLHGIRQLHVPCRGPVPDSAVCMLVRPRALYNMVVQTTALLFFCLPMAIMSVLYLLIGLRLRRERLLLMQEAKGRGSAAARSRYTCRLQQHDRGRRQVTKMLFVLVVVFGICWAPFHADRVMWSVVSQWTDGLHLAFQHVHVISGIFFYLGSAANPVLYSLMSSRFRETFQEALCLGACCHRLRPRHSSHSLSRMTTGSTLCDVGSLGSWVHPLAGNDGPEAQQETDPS
Method in brief: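 SPA competition binding on CHO-K1 membranes stably expressing human NMUR1 (about 1.0 μg protein) on WGA-PVT beads, using about 30 pM [125I]-Neuromedin U-25. Incubation was 4 h at RT in 25 mM Hepes pH 7.0, 5 mM MgCl2, 1 mM CaCl2, saponin and 0.1% BSA. Non-specific binding was defined by 100 nM unlabeled hNMU-25; values assume one-site reversible equilibrium binding.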

Chain of human NMUR2 receptor (Q9GZQ4 whole entry): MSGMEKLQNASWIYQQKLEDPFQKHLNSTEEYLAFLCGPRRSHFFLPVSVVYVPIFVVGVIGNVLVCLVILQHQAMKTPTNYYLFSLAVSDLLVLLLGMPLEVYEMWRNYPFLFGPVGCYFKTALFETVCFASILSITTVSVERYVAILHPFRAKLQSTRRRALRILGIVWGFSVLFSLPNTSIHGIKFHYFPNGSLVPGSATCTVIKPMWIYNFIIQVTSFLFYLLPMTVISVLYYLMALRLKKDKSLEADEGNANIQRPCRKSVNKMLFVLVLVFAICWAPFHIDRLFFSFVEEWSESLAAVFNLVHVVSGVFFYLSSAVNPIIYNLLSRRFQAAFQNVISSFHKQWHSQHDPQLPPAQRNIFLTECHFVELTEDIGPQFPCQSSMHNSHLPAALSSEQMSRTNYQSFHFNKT

Row | solubility at 2 h (physchem; pH 7.2) [µg/mL] | SMILES | Ki (human NMUR2 receptor) [nM] | solubility at 2 h (physchem; pH 7.3) [µg/mL] | Ki (human NMUR1 receptor) [nM] | solubility at 2 h (physchem; pH 6.9) [µg/mL] | solubility at 2 h (physchem; pH 7) [µg/mL]
1 |  | CCCC[C@H](NC(=O)[C@H](CC(C)C)N(C)C(=O)[C@H](Cc1ccccc1)NC(=O)[C@H](Cc1ccc(O)cc1)NC(=O)CN1CCN(CCNC(=O)CN(C)C(=O)CN(C)C(=O)CN(C)C(=O)CN(C)C(=O)CN(C)C(=O)CN(C)C(=O)CN(C)C(=O)CN(C)C(=O)CN(C)C(=O)CN(C)C(=O)CN(C)C(=O)CN(C)C(=O)CN(C)C(=O)CN(C)C(=O)CN(C)C(=O)CC[C@H](NC(=O)CC[C@H](NC(=O)CC[C@H](NC(=O)CCCCCCCCCCCCCCCCC(=O)O)C(=O)O)C(=O)O)C(=O)O)CC1)C(=O)N[C@@H](CCN)C(=O)N1CCC[C@H]1C(=O)N[C@@H](CCCNC(=N)N)C(=O)NCC(N)=O [Compound 26, C18DA-gGlu3-Sar15-AEPipAc-Tyr-Phe-NMeLeu-Nle-Dbu-Pro-Arg-Gly-NH2] (HELM PEPTIDE1{[O=C(O)CCCCCCCCCCCCCCCCC(=O)[*:2]].[gGlu].[gGlu].[gGlu].[Sar].[Sar].[Sar].[Sar].[Sar].[Sar].[Sar].[Sar].[Sar].[Sar].[Sar].[Sar].[Sar].[Sar].[Sar].[O=C(CN1CCN(CCN[*:1])CC1)[*:2]].Y.F.[meL].[Nle].[Dab].P.R.G.[am]}$$$$V2.0) | 48.1 | 7700 (≈ 2660 µM) | > 10000 |  | 
2 | 8800 (≈ 3280 µM) | CCCC[C@H](NC(=O)[C@H](CC(C)C)N(C)C(=O)[C@H](Cc1ccccc1)NC(=O)[C@H](Cc1ccc(O)cc1)NC(=O)CN1CCN(CCNC(=O)CN(C)C(=O)CN(C)C(=O)CN(C)C(=O)CN(C)C(=O)CN(C)C(=O)CN(C)C(=O)CN(C)C(=O)CN(C)C(=O)CN(C)C(=O)CN(C)C(=O)CN(C)C(=O)CN(C)C(=O)CC[C@H](NC(=O)CC[C@H](NC(=O)CC[C@H](NC(=O)CCCCCCCCCCCCCCCCC(=O)O)C(=O)O)C(=O)O)C(=O)O)CC1)C(=O)N[C@@H](CCN)C(=O)N1CCC[C@H]1C(=O)N[C@@H](CCCNC(=N)N)C(=O)NCC(N)=O [Compound 27, C18DA-gGlu3-Sar12-AEPipAc-Tyr-Phe-NMeLeu-Nle-Dbu-Pro-Arg-Gly-NH2] | 23.4 |  | > 10000 |  | 
3 | 8800 (≈ 3290 µM) | CCCC[C@H](NC(=O)[C@H](CC(C)C)N(C)C(=O)[C@H](Cc1ccccc1)NC(=O)[C@H](Cc1ccc(O)cc1)NC(=O)CN1CCN(CCNC(=O)CN(C)C(=O)CN(C)C(=O)CN(C)C(=O)CN(C)C(=O)CN(C)C(=O)CN(C)C(=O)CN(C)C(=O)CN(C)C(=O)CN(C)C(=O)CN(C)C(=O)CN(C)C(=O)CN(C)C(=O)CC[C@H](NC(=O)CC[C@H](NC(=O)CC[C@H](NC(=O)CCCCCCCCCCCCCCCCC(=O)O)C(=O)O)C(=O)O)C(=O)O)CC1)C(=O)N[C@@H](CCN)C(=O)N(C)[C@@H](C)C(=O)N[C@@H](CCCNC(=N)N)C(=O)NCC(N)=O [Compound 38, C18DA-gGlu3-Sar12-AEPipAc-Tyr-Phe-NMeLeu-Nle-Dbu-NMeAla-Arg-Gly-NH2] | 33.8 |  | > 10000 |  | 
4 |  | CCCC[C@H](NC(=O)[C@H](CC(C)C)N(C)C(=O)[C@H](Cc1ccccc1)NC(=O)[C@H](Cc1ccc(O)cc1)NC(=O)CN1CCN(CCNC(=O)CN(C)C(=O)CN(C)C(=O)CN(C)C(=O)CN(C)C(=O)CN(C)C(=O)CN(C)C(=O)CN(C)C(=O)CN(C)C(=O)CN(C)C(=O)CN(C)C(=O)CN(C)C(=O)CN(C)C(=O)CN(C)C(=O)CN(C)C(=O)CN(C)C(=O)CC[C@H](NC(=O)CC[C@H](NC(=O)CC[C@H](NC(=O)CCCCCCCCCCCCCCCCCCC(=O)O)C(=O)O)C(=O)O)C(=O)O)CC1)C(=O)N[C@@H](CCN)C(=O)N1CCC[C@H]1C(=O)N[C@@H](CCCNC(=N)N)C(=O)NCC(N)=O [Compound 42, C20DA-gGlu3-Sar15-AEPipAc-Tyr-Phe-NMeLeu-Nle-Dbu-Pro-Arg-Gly-NH2] (HELM PEPTIDE1{[O=C(O)CCCCCCCCCCCCCCCCCCC(=O)[*:2]].[gGlu].[gGlu].[gGlu].[Sar].[Sar].[Sar].[Sar].[Sar].[Sar].[Sar].[Sar].[Sar].[Sar].[Sar].[Sar].[Sar].[Sar].[Sar].[O=C(CN1CCN(CCN[*:1])CC1)[*:2]].Y.F.[meL].[Nle].[Dab].P.R.G.[am]}$$$$V2.0) | 23.7 |  | > 10000 | 5300 (≈ 1810 µM) | 
5 |  | CCCC[C@H](NC(=O)[C@H](CC(C)C)N(C)C(=O)[C@H](Cc1ccccc1)NC(=O)[C@H](Cc1ccc(O)cc1)NC(=O)CN1CCN(CCNC(=O)CN(C)C(=O)CN(C)C(=O)CN(C)C(=O)CN(C)C(=O)CN(C)C(=O)CN(C)C(=O)CN(C)C(=O)CN(C)C(=O)CN(C)C(=O)CN(C)C(=O)CN(C)C(=O)CN(C)C(=O)CN(C)C(=O)CN(C)C(=O)CN(C)C(=O)CC[C@H](NC(=O)CC[C@H](NC(=O)CC[C@H](NC(=O)CCCCCCCCCCCCCCCCCCC(=O)O)C(=O)O)C(=O)O)C(=O)O)CC1)C(=O)N[C@@H](CCN)C(=O)N(C)[C@@H](C)C(=O)N[C@@H](CCCNC(=N)N)C(=O)NCC(N)=O [Compound 43, C20DA-gGlu3-Sar15-AEPipAc-Tyr-Phe-NMeLeu-Nle-Dbu-NMeAla-Arg-Gly-NH2] (HELM PEPTIDE1{[O=C(O)CCCCCCCCCCCCCCCCCCC(=O)[*:2]].[gGlu].[gGlu].[gGlu].[Sar].[Sar].[Sar].[Sar].[Sar].[Sar].[Sar].[Sar].[Sar].[Sar].[Sar].[Sar].[Sar].[Sar].[Sar].[O=C(CN1CCN(CCN[*:1])CC1)[*:2]].Y.F.[meL].[Nle].[Dab].[meA].R.G.[am]}$$$$V2.0) | 32.6 |  | > 10000 |  | 5600 (≈ 1920 µM)

Row | SMILES | solubility at 2 h (physchem; pH 7.2) [µg/mL] | Ki (human NMUR2 receptor) [nM] | solubility at 2 h (physchem; pH 7.3) [µg/mL] | Ki (human NMUR1 receptor) [nM] | solubility at 2 h (physchem; pH 6.9) [µg/mL] | solubility at 2 h (physchem; pH 7) [µg/mL]
6 | CCCC[C@H](NC(=O)[C@H](CC(C)C)N(C)C(=O)[C@H](Cc1ccccc1)NC(=O)[C@H](Cc1ccc(O)cc1)NC(=O)CN1CCN(CCNC(=O)CN(C)C(=O)CN(C)C(=O)CN(C)C(=O)CN(C)C(=O)CN(C)C(=O)CN(C)C(=O)CN(C)C(=O)CN(C)C(=O)CN(C)C(=O)CC[C@H](NC(=O)CC[C@H](NC(=O)CC[C@H](NC(=O)CCCCCCCCCCCCCCCCC(=O)O)C(=O)O)C(=O)O)C(=O)O)CC1)C(=O)N[C@@H](CCN)C(=O)N(C)[C@@H](C)C(=O)N[C@@H](CCCNC(=N)N)C(=O)NCC(N)=O [Compound 28, C18DA-gGlu3-Sar9-AEPipAc-Tyr-Phe-NMeLeu-Nle-Dbu-NMeAla-Arg-Gly-NH2] (HELM PEPTIDE1{[O=C(O)CCCCCCCCCCCCCCCCC(=O)[*:2]].[gGlu].[gGlu].[gGlu].[Sar].[Sar].[Sar].[Sar].[Sar].[Sar].[Sar].[Sar].[Sar].[O=C(CN1CCN(CCN[*:1])CC1)[*:2]].Y.F.[meL].[Nle].[Dab].[meA].R.G.[am]}$$$$V2.0) | 8500 (≈ 3460 µM) | 56.2 |  | > 10000 |  | 
